# Molecular target: human insulin receptor (Homo sapiens, UniProt P06213)
# Experiment: Insulin receptor binding, SPA (Scintillation Proximity Assay) microtiterplate antibody capture assay
# Details: relative to human insulin; purified recombinant human insulin receptor - exon 11; A14 Tyr[125I]-human insulin tracer; 16 hours incubation
# Procedure: The affinity of the insulin analogues of the invention for the human insulin receptor was determined by a SPA assay (Scintillation Proximity Assay) microtiterplate antibody capture assay. SPA-PVT antibody-binding beads, anti-mouse reagent (Amersham Biosciences, Cat No. PRNQ0017) were mixed with 25 ml of binding buffer (100 mM HEPES pH 7.8; 100 mM sodium chloride, 10 mM MgSO4, 0.025% Tween-20). Reagent mix for a single Packard Optiplate (Packard No. 6005190) is composed of 2.4 μl of a 1:5000 diluted purified recombinant human insulin receptor—exon 11, an amount of a stock solution of A14 Tyr[^125I]-human insulin corresponding to 5000 cpm per 100 μl of reagent mix, 12 μl of a 1:1000 dilution of F12 antibody, 3 ml of SPA-beads and binding buffer to a total of 12 ml. A total of 100 μl was then added and a dilution series is made from appropriate samples. To the dilution series was then added 100 μl of reagent mix and the samples were incubated for 16 hours while gently shaken. The phases were the then separated by centrifugation for 1 min and the plates counted in a Topcounter. The binding data were fitted using the nonlinear regression algorithm in the GraphPad Prism 2.01 (GraphPad Software, San Diego, Calif.).
# Sequence of human insulin receptor (P06213 28-746 isoform P06213-2 limits assumed): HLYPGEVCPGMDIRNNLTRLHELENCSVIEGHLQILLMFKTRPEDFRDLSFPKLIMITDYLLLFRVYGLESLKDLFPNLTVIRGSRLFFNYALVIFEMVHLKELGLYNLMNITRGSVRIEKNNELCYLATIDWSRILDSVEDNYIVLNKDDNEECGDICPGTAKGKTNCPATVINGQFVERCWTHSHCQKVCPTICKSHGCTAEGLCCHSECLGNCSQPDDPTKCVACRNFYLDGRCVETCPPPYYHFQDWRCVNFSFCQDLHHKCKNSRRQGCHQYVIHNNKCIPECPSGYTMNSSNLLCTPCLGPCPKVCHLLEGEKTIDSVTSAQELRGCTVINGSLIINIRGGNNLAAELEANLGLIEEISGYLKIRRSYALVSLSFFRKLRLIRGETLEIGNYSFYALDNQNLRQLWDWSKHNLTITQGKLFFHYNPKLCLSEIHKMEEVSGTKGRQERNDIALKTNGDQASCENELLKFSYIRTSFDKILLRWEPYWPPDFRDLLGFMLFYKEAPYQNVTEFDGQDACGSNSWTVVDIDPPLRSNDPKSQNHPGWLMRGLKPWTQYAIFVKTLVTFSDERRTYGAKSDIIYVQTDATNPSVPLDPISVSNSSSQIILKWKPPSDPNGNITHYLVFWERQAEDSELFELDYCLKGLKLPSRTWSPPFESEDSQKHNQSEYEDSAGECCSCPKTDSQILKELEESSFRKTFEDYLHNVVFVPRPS
# Sequence of human insulin receptor (P06213 763-1382 partner limits assumed): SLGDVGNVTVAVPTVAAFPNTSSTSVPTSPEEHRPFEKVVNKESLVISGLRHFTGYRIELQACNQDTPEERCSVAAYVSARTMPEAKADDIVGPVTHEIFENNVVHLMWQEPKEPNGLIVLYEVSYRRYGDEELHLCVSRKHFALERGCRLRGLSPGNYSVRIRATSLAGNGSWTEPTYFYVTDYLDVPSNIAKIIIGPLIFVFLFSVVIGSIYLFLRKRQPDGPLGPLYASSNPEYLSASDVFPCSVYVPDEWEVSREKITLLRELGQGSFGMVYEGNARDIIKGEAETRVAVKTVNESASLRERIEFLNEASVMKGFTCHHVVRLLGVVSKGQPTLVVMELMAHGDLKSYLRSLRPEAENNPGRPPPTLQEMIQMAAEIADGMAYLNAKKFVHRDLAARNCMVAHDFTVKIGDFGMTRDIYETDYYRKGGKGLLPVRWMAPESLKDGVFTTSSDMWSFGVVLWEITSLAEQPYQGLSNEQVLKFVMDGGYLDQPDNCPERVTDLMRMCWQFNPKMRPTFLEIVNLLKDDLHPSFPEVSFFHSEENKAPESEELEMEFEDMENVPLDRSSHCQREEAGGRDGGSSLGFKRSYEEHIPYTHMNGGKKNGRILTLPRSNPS
row,Insulin receptor affinity in relation to human insulin,Substance
1,31,N^εB29-(3-[2-(2-{2-[2-(2-{2-[2-(13-carboxy-tridecanoylamino)-ethoxy]-ethoxy)-ethoxy)-ethoxy]-ethoxy}-ethoxy)-ethoxy]-ethoxy}-propionoyl-γ-glutamyl) desB30 human insulin [example 16]
2,27,N^εB29-(3-(2-{2-[2-(9-carboxynonanoylamino)ethoxy]ethoxy}ethylcarbamoyl) propionyl-γ-glutamyl) desB30 human insulin [example 10]
3,17,N^εB29-(3-[2-(2-{2-[2-(15-carboxypentadecanoylamino)ethoxy]ethoxy}ethoxy)-ethoxy]propionyl)) desB30 human insulin [example 13]
4,35,N^εB29-(3-[2-(2-(2-[2-(13-Carboxy-tridecanoylamino)-ethoxy)-ethoxy]-ethoxy)-ethoxy]-propionoyl-γ-glutamyl) desB30 human insulin [example 15]
5,17,N^εB29-(3-(2-{2-[2-(15-Carboxy-pentadecanoylamino)-ethoxy]-ethoxy}-ethylcarbamoyl)-propionyl-γ-glutamyl) desB30 human insulin [example 17]
6,12,N^εB29-(3-[2-{2-(2-[ω-carboxy-heptadecanoyl-γ-glutamyl-(2-amino-ethoxy)]-ethoxy)-ethoxy}-ethoxy]-propionyl) desB30 human insulin [example 2]
7,9.2,N^εB29-(ω-[2-(2-{2-[2-(2-carboxy-ethoxy)-ethoxy]-ethoxy}-ethoxy)-ethylcarbamoyl]-heptadecanoyl-α-glutamyl) desB30 human insulin [example 4]
8,35,N^εB29-(3-(3-{2-[2-(3-[7-carboxyheptanoylamino]propoxy)ethoxy]-ethoxy}propylcarbamoyl)propionyl) desB30 human insulin [example 7]
9,34,N^εB29-(3-(3-{2-[2-(3-[9-Carboxynonanoylamino]propoxy)ethoxy]ethoxy}-propylcarbamoyl)propionyl) desB30 human insulin [example 9]
10,5.6,N^εB29-(ω-[2-(2-{2-[2-(2-carboxy-ethoxy)-ethoxy]-ethoxy}-ethoxy)-ethylcarbamoyl]-heptadecanoyl-γ-glutamyl) desB30 human insulin [example 5]
11,15,N^εB29-(3-(2-{2-[2-(2-{2-[2-(2-{2-[2-(2-{2-[2-(13-carboxy-tridecanoylamino)-ethoxy]-ethoxy}-ethoxy)-ethoxy]-ethoxy}-ethoxy)-ethoxy]-ethoxy}-ethoxy)-ethoxy]-ethoxy}-ethoxy)-propionoyl-γ-glutamyl) desB30 human insulin [example 14]
12,14,N^εB29-{3-[2-(2-{2-[2-(15-carboxy-pentadecanoylamino)-ethoxy]-ethoxy}-ethoxy)-ethoxy]-propionyl-γ-glutamyl desB30 human insulin [example 3]

row,Substance,Insulin receptor affinity in relation to human insulin
1,N^εB29-(3-(3-{4-[3-(7-Carboxyheptanoylamino)propoxy]butoxy}propylcarbamoyl)-propionyl-γ-glutamyl) desB30 human insulin [example 8],34
2,N^εB29-(3-[2-{2-(2-[ω-carboxy-pentadecanoyl-γ-glutamyl-(2-amino-ethoxy)]-ethoxy)-ethoxy}-ethoxy]-propionyl) desB30 human insulin [example 1],11
3,N^εB29-3-[2-(2-{2-[2-(ω-carboxy-heptadecanoylamino)-ethoxy]-ethoxy}-ethoxy)-ethoxy]-propionyl-γ-glutamyl desB30 human insulin [example 6],8.3
